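Protocol summary: plate cells (96-well), add compound at 5 concentrations, incubate 48 h, interpolate endpoints linearly. TGI: concentration producing complete growth inhibition.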
Tests used:
Assay in all cases: inhibition of tumour cell growth, NCI panel, 48 h
[1] = tested on: SK-MEL-5 melanoma
[2] = tested on: HCT-116 colon
[3] = tested on: MDA-MB-231 breast
[4] = tested on: SNB-19 CNS
[5] = tested on: CAKI-1 renal
[6] = tested on: UACC-62 melanoma
[7] = tested on: SK-MEL-28 melanoma
[8] = tested on: MALME-3M melanoma
[9] = tested on: OVCAR-8 ovarian
[10] = tested on: HCT-15 colon
[11] = tested on: IGROV1 ovarian
[12] = tested on: SW-620 colon
[13] = tested on: TK-10 renal
[14] = tested on: LOX IMVI melanoma
[15] = tested on: T-47D breast
[16] = tested on: DU-145 prostate
[17] = tested on: A549 NSCLC
[18] = tested on: UO-31 renal
[19] = tested on: SN12C renal
[20] = tested on: KM12 colon
[21] = tested on: NCI-H23 lung
[22] = tested on: SR leukemia
[23] = tested on: SF-268 CNS
[24] = tested on: MDA-MB-435
[25] = tested on: HT29 colon
[26] = tested on: SK-OV-3 ovarian
[27] = tested on: OVCAR-5 ovarian
[28] = tested on: PC-3 prostate
[29] = tested on: ACHN renal
[30] = tested on: K-562 leukemia
[31] = tested on: UACC-257 melanoma
[32] = tested on: CCRF-CEM leukemia
[33] = tested on: NCI-H460 lung
[34] = tested on: SK-MEL-2 melanoma
[35] = tested on: BT-549 breast
[36] = tested on: HCC-2998 colon
[37] = tested on: COLO 205 colon
[38] = tested on: HS 578T breast
[39] = tested on: M14 melanoma
[40] = tested on: NCI/ADR-RES ovarian
[41] = tested on: MCF7 breast
[42] = tested on: SF-539 CNS
[43] = tested on: OVCAR-4 ovarian
[44] = tested on: U251 CNS
[45] = tested on: RPMI-8226 leukemia
[46] = tested on: RXF 393 renal
[47] = tested on: NCI-H522 lung
[48] = tested on: MOLT-4 leukemia
[49] = tested on: SF-295 CNS
[50] = tested on: HOP-92 NSCLC
[51] = tested on: OVCAR-3 ovarian
[52] = tested on: HL-60(TB) leukemia
[53] = tested on: 786-0 renal
[54] = tested on: MDA-N
[55] = tested on: SNB-75 CNS
[56] = tested on: HOP-62 NSCLC
[57] = tested on: EKVX NSCLC
[58] = tested on: A498 renal
[59] = tested on: NCI-H226 lung

With `CCCc1cc(=O)oc2c(C=O)c(O)cc(O)c12` the TGI [1] was 37.8 µM, the TGI [2] was 47.2 µM and the TGI [3] was 58.2 µM. For the same molecule, the TGI [4] was 87.1 µM, the TGI [5] was 75.8 µM and the TGI [6] was 38.4 µM. It also gave a TGI [7] of 62.8 µM, a TGI [8] of 42.1 µM and a TGI [9] of 62 µM. It also gave a TGI [10] of 73.4 µM, a TGI [11] of over 100 µM and a TGI [12] of 56.4 µM. It also gave a TGI [13] of over 100 µM, a TGI [14] of 40.3 µM and a TGI [15] of 74.9 µM. For the same molecule, the TGI [16] was 82.2 µM, the TGI [17] was over 100 µM and the TGI [18] was 60.2 µM. It also gave a TGI [19] of 78.9 µM, a TGI [20] of 61.2 µM and a TGI [21] of 48 µM. For the same molecule, the TGI [22] was 58.1 µM, the TGI [23] was 76.5 µM and the TGI [24] was 55.3 µM. The TGI [25] was 64.5 µM, the TGI [26] was 86.9 µM and the TGI [27] was 74.4 µM. It also gave a TGI [28] of 59.3 µM, a TGI [29] of 86.7 µM and a TGI [30] of over 100 µM. The TGI [31] was 65.2 µM, the TGI [32] was 51.4 µM and the TGI [33] was 69.5 µM. The TGI [34] was 48.4 µM, the TGI [35] was 77.1 µM and the TGI [36] was 33.6 µM. The TGI [37] was 40.8 µM, the TGI [38] was 61.2 µM and the TGI [39] was 52.7 µM. It also gave a TGI [40] of 73 µM, a TGI [41] of 80 µM and a TGI [42] of 57 µM. It also gave a TGI [43] of 73.5 µM, a TGI [44] of 55.7 µM and a TGI [45] of 66.5 µM. It also gave a TGI [46] of 53 µM, a TGI [47] of 41.9 µM and a TGI [48] of 56.5 µM. It also gave a TGI [49] of 85 µM, a TGI [50] of 45.8 µM and a TGI [51] of 44.3 µM. For the same molecule, the TGI [52] was 42.7 µM, the TGI [53] was over 100 µM and the TGI [54] was 75.6 µM. The TGI [55] was 47.4 µM, the TGI [56] was 59.7 µM and the TGI [57] was 56.3 µM. It also gave a TGI [58] of 40.6 µM.

`Cc1cc(S(=O)(=O)NC(=C(C#N)C#N)[n+]2ccc(N(C)C)cc2)c([S-])cc1Cl` was tested, and the TGI [1] was over 100 µM, the TGI [2] was over 100 µM and the TGI [3] was over 100 µM. It also gave a TGI [4] of over 100 µM, a TGI [5] of over 100 µM and a TGI [6] of over 100 µM. It also gave a TGI [7] of over 100 µM, a TGI [8] of over 100 µM and a TGI [9] of over 100 µM. For the same molecule, the TGI [10] was over 100 µM, the TGI [11] was over 100 µM and the TGI [13] was over 100 µM. For the same molecule, the TGI [15] was over 100 µM, the TGI [16] was over 100 µM and the TGI [59] was over 100 µM. It also gave a TGI [17] of over 100 µM, a TGI [18] of over 100 µM and a TGI [19] of over 100 µM. For the same molecule, the TGI [20] was over 100 µM, the TGI [21] was over 100 µM and the TGI [22] was over 100 µM. It also gave a TGI [23] of over 100 µM, a TGI [24] of over 100 µM and a TGI [25] of over 100 µM. The TGI [26] was over 100 µM, the TGI [27] was over 100 µM and the TGI [28] was over 100 µM. It also gave a TGI [29] of over 100 µM, a TGI [30] of over 100 µM and a TGI [31] of over 100 µM. It also gave a TGI [32] of over 100 µM, a TGI [33] of over 100 µM and a TGI [34] of over 100 µM. It also gave a TGI [35] of over 100 µM, a TGI [36] of over 100 µM and a TGI [37] of over 100 µM. For the same molecule, the TGI [38] was over 100 µM, the TGI [39] was over 100 µM and the TGI [40] was over 100 µM. It also gave a TGI [41] of over 100 µM, a TGI [42] of over 100 µM and a TGI [43] of over 100 µM. It also gave a TGI [44] of over 100 µM, a TGI [45] of over 100 µM and a TGI [46] of over 100 µM. It also gave a TGI [47] of over 100 µM, a TGI [48] of over 100 µM and a TGI [49] of over 100 µM. For the same molecule, the TGI [50] was over 100 µM, the TGI [51] was over 100 µM and the TGI [52] was over 100 µM. For the same molecule, the TGI [53] was over 100 µM, the TGI [54] was over 100 µM and the TGI [56] was over 100 µM. It also gave a TGI [57] of over 100 µM and a TGI [58] of over 100 µM.

Source: PubChem BioAssay (NCI)
